Laboratory results reported in PMC9256669, “Monomethyl auristatin antibody and peptide drug conjugates for trimodal cancer chemo-radio-immunotherapy” (Nature Communications, 2022).
“And” between values parts separate entries of the source, which are not always exact repeats. Equal entries are not always repeated. Non-standard residues stand in square brackets, D forms with d. Residues, ends and D or L forms follow the SMILES beside them. *: point of attachment. Dolaproine = CO[C@@H]([C@@H]1CCCN1)[C@@H](C)C(=O)O; Dil = CC[C@H](C)[C@H](NC)[C@@H](CC(=O)O)OC; X1 = C[C@@H](N*)[C@@H](O)c1ccccc1; NMeV = CN[C@H](C(=O)O)C(C)C

Legend:
LL/2 cells = experiment: Clonogenic survival with MMAE and 2 Gy (SF2); format: cell-based, murine; set-up: key: fraction surviving 2 Gy relative to non-irradiated cells
Description: Cells were treated with MMAE for 24 h and then irradiated with 2 Gy. […] Following IR, cells were counted, re-plated at varying cell numbers in drug free media. 10–14 days after initial seeding formed colonies were methanol fixed, stained with crystal violet, and counted. Surviving fraction at 2 Gy (SF2) was calculated as the fraction of cells surviving 2 Gy compared to non-irradiated cells. […]

MOC2 tumors = experiment: Orthotopic tumor CyTOF analysis of immune infiltrate; format: in vivo, C57BL/6 mice; set-up: Immune cell quantification: M2 / CyTOF cell quantification, Immune cell quantification: CD4+ / CyTOF cell quantification, Immune cell quantification: M1 / CyTOF cell quantification, Immune cell quantification: M-MDSC / CyTOF cell quantification, Immune cell quantification: PMN-MDSC / CyTOF cell quantification, Immune cell quantification: Eosinophils / CyTOF cell quantification, Immune cell quantification: B cells: unit not given here
Description: 6-week-old C57BL/6 female mice were implanted with 50,000 MOC2 cells into the tongue. […] […] Tissues were incubated for 15 min at 37 °C and mechanically digested using the gentle MACs Octo Dissociator. Digested samples were then passed through a 100-µm strainer to acquire a single-cell. For viability staining, cells were washed in PBS and stained with Cell-ID Cisplatin (DVS Sciences) to a final concentration of 5 μM for 5 min at room temperature. Cisplatin was quenched when cells were washed and stained with the antibody cocktail. Antibodies were prepared in Maxpar cell staining buffer (PBS with 2 mM EDTA, 0.1% BSA, 0.05% NaN3) and incubated with cells for 15 min at room temperature. […] Antibodies (clone in parenthesis) used for CyTOF included B220 (RA3-6B2), CD117(2B8), CD11c (N418), CD25 (3C7), CD4 (RM4-5), CD45 (30-F11), CD8a (53-6.7), MHC-II (M5/114.15.2), NKP46 (29A1.4), TCRb (H57-597) from Fluidigm. Antibodies CD103 (2E7), CD115 (AFS98), CD11b (M1/70), CD19 (6D5), CD23 (B3B4), CD3 (145-2C11), CD64 (X54-5/7.1), F4/80 (BM8), FCeRI (Mar-1), FR4 (TH6), Ly6C (HK1.4), Ly6G (1A8), NK1.1 (PK136) from BioLegend and antibody Siglec-F (1RNM44N) from ebioscience. All antibodies were validated by the supplier and used at a 1:100 dilution. Cells were washed with staining buffer and pelleted. Before acquiring, cells were resuspended in 0.1× dilution of EQ Four Element Calibration beads (Fluidigm) and filtered through a 35 μm nylon mesh filter. Cells were acquired on a Helios CyTOF Mass Cytometer (Fluidigm) at an event rate of 200 events/s or less. Data was normalized using Matlab-based normalization software based on the EQ bead-removal. Prior to analysis, samples were subsampled to the lowest number of events and all counts were normalized to the same number of total events, 2324. To detect clusters of cells with a similar expression of surface markers in CyTOF, single cells were gated and clustered using unsupervised dimensionality reduction algorithm optimal t-Distributed Stochastic Neighbor Embedding (opt-SNE) algorithm in OMIQ data analysis software (www.omiq.ai) (530 iterations, Perplexity 30, and Theta 0.5)[51].
Supplementary Figure 8: CyTOF analysis of tumor immune infiltrates. a)
populations identified with opt-SNE. b) MOC2 murine tumors orthotopically implanted
Tumors harvested on day 11, analyzed by CyTOF,
provided in Source Data file.

[1] = system: 4NQO-induced tongue tumors; conditions: 10 nmoles ACPP-MMAE x 2 doses + whole tongue IR 5 Gy x 2 at week 20; tongues at week 22; vs untreated control
Description: 4-Nitroquinoline N-oxide (4NQO, Sigma Aldrich-N8141) was dissolved in propylene glycol as a stock solution (4 mg/ml) and further diluted in drinking water to a final concentration of 50 μg/ml. […] Since the entire tongue was exposed to 4NQO, the whole tongue was delineated and given 5 Gy × 2 using PXI SmART irradiator with 225 kVp X-ray tube. IR was delivered as 2 parallel opposed fields. All mice were given a full oral cavity examination biweekly, and any observed pathological changes were documented. On week 22, animals were euthanized, and tissues and oral pharynx were fixed in PAXgene tissue FIX (Qiagen) at room temperature for 12 h. Tissues were then transferred to 70% ethanol and paraffin embedded. Tongue sections were H&E stained and histopathologically assessed for the number and size of carcinoma lesions per tongue by a qualified Pathologist (A.A.M.) who was blinded manner to treatment of each slide.

[2] = system: orthotopic oral 4MOSC1 tumors; experiment: Trimodal therapy: ACPP-MMAE, IR and anti-PD-1 antibody; format: in vivo, C57BL/6 mice; conditions: Figure 5c; individual mice, one line per mouse
Description: Orthotopic tongue xenograft tumors were established in 6-week-old NOD SCID mice by injecting 150,000 CAL27 parental (WT) or PIK3CA H1047R-expressing cells. […] On the last day of tumor xenograft measurements, mice were euthanized, tongues resected, imaged, and fixed. […] IR was delivered as 2 parallel opposed fields.

Compound: CC[C@H](C)[C@@H]([C@@H](CC(=O)N1CCC[C@H]1[C@H](OC)[C@@H](C)C(=O)N[C@H](C)[C@@H](O)c1ccccc1)OC)N(C)C(=O)[C@@H](NC(=O)[C@@H](NC)C(C)C)C(C)C [MMAE, monomethyl auristatin E] (H-[NMeV]V[Dil][Dolaproine]-X1)
- SF2 (LL/2 cells; MMAE 1 nM with 2 Gy, replicate 1): 0.48
- SF2 (LL/2 cells; MMAE 1 nM with 2 Gy, replicate 2): 0.48
- SF2 (LL/2 cells; MMAE 1 nM with 2 Gy, replicate 3): 0.66
- SF2 (LL/2 cells; MMAE 1 nM with 2 Gy, replicate 4): 0.44
- SF2 (LL/2 cells; MMAE 1 nM with 2 Gy, replicate 5): 0.62
- SF2 (LL/2 cells; MMAE 1 nM with 2 Gy, replicate 6): 0.64
- SF2 (LL/2 cells; MMAE 2 nM with 2 Gy, replicate 1): 0.46
- SF2 (LL/2 cells; MMAE 2 nM with 2 Gy, replicate 2): 0.53
- SF2 (LL/2 cells; MMAE 2 nM with 2 Gy, replicate 3): 0.53
- SF2 (LL/2 cells; MMAE 2 nM with 2 Gy, replicate 4): 0.41
- SF2 (LL/2 cells; MMAE 2 nM with 2 Gy, replicate 5): 0.43
- SF2 (LL/2 cells; MMAE 2 nM with 2 Gy, replicate 6): 0.43
- SF2 (LL/2 cells; MMAE 3 nM with 2 Gy, replicate 1): 0.29
- SF2 (LL/2 cells; MMAE 3 nM with 2 Gy, replicate 2): 0.45
- SF2 (LL/2 cells; MMAE 3 nM with 2 Gy, replicate 3): 0.38
- SF2 (LL/2 cells; MMAE 3 nM with 2 Gy, replicate 4): 0.45
- SF2 (LL/2 cells; MMAE 3 nM with 2 Gy, replicate 5): 0.26
- SF2 (LL/2 cells; MMAE 3 nM with 2 Gy, replicate 6): 0.38

Compound: CDX3379-MMAE: anti-HER3 antibody CDX3379 with 4 MMAE per antibody via MC-VC-PABC linker, labeled with Cy5
- Immune cell quantification: CD8+ (MOC2 tumors; MOC2 tumors, 2.5 nmoles drug on day 7, CyTOF on day 11, counts normalized to 2324 total events (percent of counts as in Supp. Fig. 8b), one value per tumor, untreated 0.26, 1.08, 0.73, 0.77): 0.86 and 0.95
- Immune cell quantification: T regs (MOC2 tumors; MOC2 tumors, 2.5 nmoles drug on day 7, CyTOF on day 11, one value per tumor, untreated 0.52, 0.82, 0.90, 0.65): 1.64 and 1.12 and 1.68
- CyTOF cell quantification, Immune cell quantification: B cells (MOC2 tumors; Tumor #1): 1.59
- CyTOF cell quantification, Immune cell quantification: CD4+ (MOC2 tumors; Tumor #1): 3.49
- CyTOF cell quantification, Immune cell quantification: Eosinophils (MOC2 tumors; Tumor #1): 19.75
- CyTOF cell quantification, Immune cell quantification: M1 (MOC2 tumors; Tumor #1): 1.46
- CyTOF cell quantification, Immune cell quantification: M-MDSC (MOC2 tumors; Tumor #1): 5.98
- CyTOF cell quantification, Immune cell quantification: PMN-MDSC (MOC2 tumors; Tumor #1): 55.25
- CyTOF cell quantification, Immune cell quantification: B cells (MOC2 tumors; Tumor #2): 0.69
- CyTOF cell quantification, Immune cell quantification: CD4+ (MOC2 tumors; Tumor #2): 3.53
- CyTOF cell quantification, Immune cell quantification: Eosinophils (MOC2 tumors; Tumor #2): 13.68
- CyTOF cell quantification, Immune cell quantification: M1 (MOC2 tumors; Tumor #2): 0.69
- CyTOF cell quantification, Immune cell quantification: M-MDSC (MOC2 tumors; Tumor #2): 5.25
- CyTOF cell quantification, Immune cell quantification: PMN-MDSC (MOC2 tumors; Tumor #2): 63.34
- CyTOF cell quantification, Immune cell quantification: B cells (MOC2 tumors; Tumor #3): 1.94
- CyTOF cell quantification, Immune cell quantification: CD4+ (MOC2 tumors; Tumor #3): 1.98
- CyTOF cell quantification, Immune cell quantification: Eosinophils (MOC2 tumors; Tumor #3): 11.88
- CyTOF cell quantification, Immune cell quantification: M1 (MOC2 tumors; Tumor #3): 0.43
- CyTOF cell quantification, Immune cell quantification: M-MDSC (MOC2 tumors; Tumor #3): 4.09
- CyTOF cell quantification, Immune cell quantification: PMN-MDSC (MOC2 tumors; Tumor #3): 66.35
- CyTOF cell quantification, Immune cell quantification: B cells (MOC2 tumors; Tumor #4): 2.11
- CyTOF cell quantification, Immune cell quantification: CD4+ (MOC2 tumors; Tumor #4): 4.39
- CyTOF cell quantification, Immune cell quantification: Eosinophils (MOC2 tumors; Tumor #4): 27.02
- CyTOF cell quantification, Immune cell quantification: M1 (MOC2 tumors; Tumor #4): 0.47
- CyTOF cell quantification, Immune cell quantification: M-MDSC (MOC2 tumors; Tumor #4): 2.54
- CyTOF cell quantification, Immune cell quantification: PMN-MDSC (MOC2 tumors; Tumor #4): 51.89
- Immune cell quantification: M2 (MOC2 tumors; mouse, in vivo): 1.20 and 2.19 and 1.25 and 1.42
- tumor immune populations changed (CyTOF) (MOC2 tumors; orthotopic MOC2 tumors, single 2.5 nmole i.v. injection): regulatory T cells, dendritic cells and NK cells that were upregulated

Compound: cyclo(RGD)fc-MC-HN-peg8-e9-oPLGC(Me)AG-r9-c-(MC-VC-PABC-MMAE)-CONH2 [ACPP-MMAE]
- total tumor burden [1]: significantly decreased total tumor burden
- Mouse survival: status at the day given (Mouse dead = 1, Mouse alive = 0) [2]: 1
